The text below walks through data of US20260306500A1, “METHOD OF INHIBITING ADENOSINE TRIPHOSPHATE SECRETION, METHOD OF INHIBITING HEPATIC STELLATE CELL ACTIVATION, METHOD OF DEACTIVATING HEPATIC STELLATE CELL, METHOD OF TREATING HEPATIC FIBROSIS, METHOD OF TREATING NON-ALCOHOLIC STEATOHEPATITIS, AND METHOD OF TREATING PSORIASIS” (Kurume University, priority 2023, published 2026).

Series [1] has as its target T1, V-ATPase (Bos taurus, UniProt P31404+P31408).
T1 construct: Chromaffin granule membranes were prepared from adrenal glands collected from slaughtered cattle; from tissue; host or cells: cattle adrenal glands, chromaffin granule membranes (sucrose density gradient)
In words: ATP-dependent proton transport by V-ATPase (acridine orange fluorescence quenching). It counts as biochemical, cattle. Particulars: role: inhibitor. The method, then:
(§1) Chromaffin granule membranes were prepared from adrenal glands collected from slaughtered cattle according to Reference A (Nathan Nelson et al., 1988, Chromaffin Granule Proton Pump, Methods in Enzymology, 157, 619-633). Chromaffin granule membranes prepared by sucrose density gradient centrifugation were suspended in 2 ml of SME buffer (20 mM MOPS-tris (pH 7.0), 0.3 M sucrose, 5 mM EDTA, 10 μg/ml leupeptin, and 10 μg/ml pepstatin)+25% glycerol, and the resulting suspension was aliquoted and stored at −80° C. Under these conditions, the ATP transport activity, the V-ATPase activity, and the catecholamine transport activity remain fully active for at least one year.
ATP-dependent proton transport by V-ATPase was measured according to Reference B. Proton transport activity was measured using a spectrofluorometer at excitation wavelength of 492 nm and a fluorescence wavelength 540 nm, wherein fluorescence quenching of acridine orange was used as an index (N=2). The transmembrane potential generated was measured using a spectrofluorometer at an excitation wavelength of 580 nm and a fluorescence wavelength of 630 nm, wherein fluorescence quenching of oxonol-V was used as an index (N=2). The acridine measurement liquid (2 ml) contained 20 mM MOPS-tris (pH 7.0), 0.2 M sucrose, 0.1 M potassium chloride, 5 mM magnesium acetate, 0.2 μg valinomycin, 2 μM acridine orange, and about 20 μg of chromaffin granules. The oxonol-V measurement liquid (2 ml) contained 20 mM MOPS-tris (pH 7.0), 0.3 M sucrose, 5 mM magnesium acetate, 5 μM oxonol-V, and about 20 μg of chromaffin granules.
(§2) Chromaffin granule membrane vesicles were prepared in the same manner as in Example 5, and uptake of radiolabeled ATP into the vesicles was measured. Transport activity of catecholamine (dopamine) and ATP-dependent proton transport by V-ATPase were also measured in the same manner as in Example 5.

For series [2], the system named is catecholamine transport of chromaffin granule membranes. In words: Catecholamine (dopamine) transport in chromaffin granule membranes. It is filed as biochemical, cattle. Particulars: role: inhibitor. The protocol:
as §1
A catecholamine transport inhibition experiment was carried out in the same manner as the ATP transport experiment except that the experiment used a measurement liquid containing 20 mM MOPS-tris (pH 7.0), 0.1 M sucrose, 0.1 M potassium chloride, 5 mM magnesium acetate, and about 5 μg of chromaffin granule membranes. To 0.5 ml of the measurement liquid, 2 mM ATP was added, and the resulting mixture was incubated at 30° C. for about 5 minutes, followed by addition of 3[H]-dopamine thereto to a final concentration of 10 μM. After further incubation at 30° C. for 15 minutes, 0.2 ml of the reaction liquid was subjected to suction filtration through a Millipore MCE membrane filter with a pore size of 0.45 μm, and the radioactivity on the filter was measured (N=3). The substrate, 3[H]-dopamine, was prepared by mixing 3,4-[RING-2,5,6-^3H]dihydroxyphenylethylamine (dopamine) (30 Ci/mmol) (manufactured by New England Nuclear) with dopamine hydrochloride (manufactured by LKT Laboratories) such that a final concentration of […] was achieved during the use.
as §2

Series [3] has as its target T1, V-ATPase. Put plainly: Transmembrane potential generated (oxonol-V fluorescence quenching) in chromaffin granules. Particulars: role: inhibitor; 5 mM PEP, in presence of ATP, N=2. It is filed as biochemical, cattle. The method, then: as §1
ATP-dependent proton transport by V-ATPase was measured according to Reference B. Proton transport activity was measured using a spectrofluorometer at excitation wavelength of 492 nm and a fluorescence wavelength 540 nm, wherein fluorescence quenching of acridine orange was used as an index (N=2). The transmembrane potential generated was measured using a spectrofluorometer at an excitation wavelength of 580 nm and a fluorescence wavelength of 630 nm, wherein fluorescence quenching of oxonol-V was used as an index (N=2). […]

For series [4] the following is noted: clodronate; cited from earlier work.
For series [5] the following is noted: cited from earlier work.
The subject of the next series is mouse auricle. In words: Imiquimod-induced psoriasis relapse model (Example 20). Particulars: 40 mg/kg oral. It is filed as in vivo. The protocol:
To the left auricle of each mouse, 62.5 mg of 5% imiquimod cream (Beselna Cream 5%) was applied once daily a total of seven times (Days 1 to 7) in accordance with Example 19 to induce imiquimod-induced psoriasis. Thereafter, the imiquimod treatment was interrupted, and imeglimin (40 mg/kg) was orally administered on alternate days for 2 weeks (Day 8 to 22) (IMG). Mice without administration of imeglimin were designated IMQ. On Day 23, the imiquimod treatment was resumed, and 62.5 mg of 5% imiquimod cream (Beselna Cream 5%) was applied once daily a total of […]. In parallel, imeglimin (40 mg/kg) was orally administered daily to IMG.

For the next series, the system named is α-SMA in mouse liver. Put plainly: α-SMA Western blotting of liver tissue of TAA-treated mice. It counts as in vivo. Particulars: imeglimin 200 mg/kg p.o. (FIG. 31). The protocol:
In accordance with Example 15, immunostaining of α-SMA in liver sections and observation by fluorescence microscopy were performed for the normal control group, the TAA group, and the TAA+IMG group, and for a TAA+Clo group, which was treated in the same manner as the TAA+IMG group except that clodronate, instead of imeglimin, was administered at 30 mg/kg by blending it in the drinking water from 1 week after the start of TAA administration.
Further, α-SMA was compared by Western blotting. Fresh mouse liver was homogenized in Western lysis buffer (20 mM Tris-HCl, pH 7.6, 150 mM NaCl, 2 mM EDTA, 0.5% NP-40) supplemented with protease and phosphatase inhibitor tablets (manufactured by Roche Applied Science), followed by centrifugation at 10,000×g at 4° C. for 5 minutes to obtain a supernatant. Protein content in the supernatant was quantified using a BCA Protein Assay Kit (manufactured by ThermoFisher Scientific). […] Thereafter, protein bands were visualized using an […] (ECL) Western blotting detection system (manufactured by GE Healthcare) and detected with an image analyzer LAS-4000 mini (manufactured by Fujifilm).
A general note: In western blotting, separated proteins are transferred to a membrane and probed.

The mark [6] stands for this setting: up to 5 mM PEP (data not shown).

T1 sequence (P31404 whole entry, looked up): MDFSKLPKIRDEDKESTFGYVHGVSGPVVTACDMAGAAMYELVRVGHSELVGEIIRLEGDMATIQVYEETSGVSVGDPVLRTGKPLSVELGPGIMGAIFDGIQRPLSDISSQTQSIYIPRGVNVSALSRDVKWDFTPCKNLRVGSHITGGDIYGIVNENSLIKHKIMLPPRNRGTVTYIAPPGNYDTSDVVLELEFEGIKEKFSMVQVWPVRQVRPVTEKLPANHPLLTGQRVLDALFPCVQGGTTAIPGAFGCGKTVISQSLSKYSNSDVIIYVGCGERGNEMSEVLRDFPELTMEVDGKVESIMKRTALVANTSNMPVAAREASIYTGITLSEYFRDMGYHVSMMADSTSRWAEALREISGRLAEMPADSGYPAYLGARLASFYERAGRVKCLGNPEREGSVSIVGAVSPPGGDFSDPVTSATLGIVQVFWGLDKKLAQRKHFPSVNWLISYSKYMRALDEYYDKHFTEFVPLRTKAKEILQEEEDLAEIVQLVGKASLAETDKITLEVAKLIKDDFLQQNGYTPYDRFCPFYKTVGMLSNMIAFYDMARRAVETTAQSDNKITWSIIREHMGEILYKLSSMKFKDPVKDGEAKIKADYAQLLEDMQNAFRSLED
T1 sequence (P31408 whole entry, looked up): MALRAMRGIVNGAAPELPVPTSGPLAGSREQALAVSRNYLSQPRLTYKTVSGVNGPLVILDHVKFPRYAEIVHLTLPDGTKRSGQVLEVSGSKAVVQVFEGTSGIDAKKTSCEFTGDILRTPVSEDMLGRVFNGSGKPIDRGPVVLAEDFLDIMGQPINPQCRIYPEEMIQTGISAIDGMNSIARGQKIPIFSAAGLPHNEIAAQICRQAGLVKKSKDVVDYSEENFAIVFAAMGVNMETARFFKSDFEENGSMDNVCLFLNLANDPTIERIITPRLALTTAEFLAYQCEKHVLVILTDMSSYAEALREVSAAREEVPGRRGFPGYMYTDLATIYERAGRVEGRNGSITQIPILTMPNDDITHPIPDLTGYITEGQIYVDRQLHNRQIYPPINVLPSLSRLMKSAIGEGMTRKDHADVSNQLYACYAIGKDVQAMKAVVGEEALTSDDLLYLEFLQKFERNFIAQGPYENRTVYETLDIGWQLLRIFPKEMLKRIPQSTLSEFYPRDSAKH

For the compound `C=C(OP(=O)(O)O)C(=O)O` [PEP, phosphoenolpyruvic acid], the “change in acridine orange quenching level” value at V-ATPase [1] (5 mM PEP, in presence of ATP, N=2) is recorded as “did not change the level of quenching”. Besides, the “inhibition of V-ATPase” value on V-ATPase [1] (setting [6]) is given as “did not inhibit”. In addition, in series [2] (5 mM PEP, 10 μM 3H-dopamine, 2 mM ATP, N=3, control 11.07±0.129), the “ATP-dependent dopamine transport activity” value is 12.41±0.250 nmol/mg protein. Moreover, in series [2] (setting [6]), the “inhibition of catecholamine transport” value is given as “did not inhibit”. For the same compound, on V-ATPase [3], the “change in oxonol-V quenching level” value is “did not change the level of quenching”.

For `O=P(O)(O)C(Cl)(Cl)P(=O)(O)O` [clodronate], in series [4], the absorption result is “extremely low absorption”, the accumulation in bone entry is recorded as “accumulate in bone” and the serious side effect result is given as “jaw osteonecrosis”.

Regarding `C[C@@H]1N=C(N)NC(N(C)C)=N1` [imeglimin], in series [5] (1 g of imeglimin hydrochloride daily for one week, 10080 min, read-out: blood imeglimin concentration), the concentration is 9 µM. The “transfer into the body” value in series [5] (imeglimin) is reported as “extremely low transfer into the body”. Moreover, the “relapse-preventing effect on psoriasis” value with mouse auricle is recorded as “relapse-preventing effect on psoriasis”. The “psoriatic symptoms after resumed imiquimod treatment” value with mouse auricle (alternate days Day 8 to 22, then daily from Day 23 (FIG. 43)) is recorded as “markedly reduced compared to IMQ”. In the series with α-SMA in mouse liver, the “TAA-induced increase in α-SMA (Western blotting)” value is on record as “markedly suppressed”.
